Measurements from ChEMBL document CHEMBL1208741, “Docking and SAR studies of salacinol derivatives as alpha-glucosidase inhibitors” (Bioorg Med Chem Lett, 2010).

Test: Inhibition of alpha glucosidase

**Q.** Which pIC50 does the source give for `O=S(=O)([O-])O[C@@H](CO)[C@H](O)C[S@+]1C[C@@H](O)[C@H](O)[C@H]1CO` [SALACINOL] here?
**A.** 5.28

**Q.** With `[O-][C@@H](CO)[C@H](O)C[S@+]1C[C@@H](O)[C@H](O)[C@H]1CO` [NEOSALACINOL] as the compound, how does the pIC50 read?
**A.** 5.1

**Q.** With `O=S(=O)([O-])O[C@@H](CO)CC[S@+]1C[C@@H](O)[C@H](O)[C@H]1CO` as the compound, how does the pIC50 read?
**A.** < 3

**Q.** Which pIC50 does the source give for `O=S(=O)([O-])O[C@H](CO)[C@@H](O)C[S@+]1C[C@@H](O)[C@H](O)[C@H]1CO` here?
**A.** < 3

**Q.** For `[O-]CC[C@H](O)C[S@+]1C[C@@H](O)[C@H](O)[C@H]1CO`, which pIC50 is on record?
**A.** 3.94

**Q.** For `O=S(=O)([O-])OCCC[S@+]1C[C@@H](O)[C@H](O)[C@H]1CO`, which pIC50 is on record?
**A.** < 3

**Q.** Which pIC50 does the source give for `O=S(=O)([O-])OC[C@H](O)C[S@+]1C[C@@H](O)[C@H](O)[C@H]1CO` [SALAPRINOL] here?
**A.** 3

**Q.** Which pIC50 does the source give for `[O-]C[C@@H](O)[C@@H](O)C[S@+]1C[C@@H](O)[C@H](O)[C@H]1CO` here?
**A.** < 3
